Laboratory results as given in ChEMBL document CHEMBL1143338, “Design of beta-hairpin peptides for modulation of cell adhesion by beta-turn constraint” (J Med Chem, 2009).
Positions of bridges follow the written chain, without caps; N, C: chain ends. Residues, ends and D or L forms follow the SMILES beside them.

Columns and labels:
Format in all cases: cell-based
[1] = Cytotoxicity against human Caco-2 cells assessed as cell viability at 180 uM after 2 hrs by MTT assay; settings: read-out: Activity
[2] = molecular target: T1, T-cell surface antigen CD2 (Homo sapiens) (UniProt P06729); assay: Inhibition of CD2-CD58 interaction assessed as inhibition of CD2 expressing human Jurkat T cell adhesion to CD58 expressing human Caco-2 cells at 90 uM after 45 mins by microplate fluorescence analysis
T1 sequence (whole entry): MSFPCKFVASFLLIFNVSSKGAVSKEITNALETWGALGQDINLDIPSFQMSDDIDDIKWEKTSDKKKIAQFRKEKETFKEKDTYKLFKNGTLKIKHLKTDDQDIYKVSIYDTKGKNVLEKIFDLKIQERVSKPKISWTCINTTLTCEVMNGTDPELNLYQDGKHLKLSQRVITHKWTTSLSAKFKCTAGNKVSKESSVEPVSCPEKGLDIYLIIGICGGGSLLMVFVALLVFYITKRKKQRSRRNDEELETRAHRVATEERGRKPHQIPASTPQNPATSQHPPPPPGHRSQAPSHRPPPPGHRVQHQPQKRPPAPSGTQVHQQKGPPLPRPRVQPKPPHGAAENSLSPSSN

Jurkat = assay: Inhibition of CD2-CD58 interaction assessed as inhibition of CD2 expressing human Jurkat T cell to CD58 expressing sheep RBC adhesion-associated E-rosette formation at 180 uM after 45 mins by microplate fluorescence analysis
[3] = molecular target: T1, T-cell surface antigen CD2 (Homo sapiens); assay: Inhibition of CD2-CD58 interaction assessed as inhibition of CD2 expressing human Jurkat T cell adhesion to CD58 expressing human Caco-2 cells after 45 mins by microplate fluorescence analysis relative to control
[4] = molecular target: T2, Lymphocyte function-associated antigen 3 (Homo sapiens) (UniProt P19256); assay: Inhibition of antiCD58-FITC binding to CD58 in human Caco-2 cells at 180 uM after 1 hr by fluorescence analysis relative to control
T2 sequence (whole entry): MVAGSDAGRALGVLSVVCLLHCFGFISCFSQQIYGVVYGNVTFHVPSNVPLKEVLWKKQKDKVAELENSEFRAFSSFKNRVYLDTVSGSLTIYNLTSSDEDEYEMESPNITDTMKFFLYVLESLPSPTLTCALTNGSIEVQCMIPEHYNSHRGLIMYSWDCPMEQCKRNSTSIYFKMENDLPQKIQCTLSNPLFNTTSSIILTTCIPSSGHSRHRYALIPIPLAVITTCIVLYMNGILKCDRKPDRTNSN

| SMILES | inhibition [2] | Activity [3] | inhibition [4] | viability at 2 h, 180 µM [1] | inhibition (Jurkat) |
| --- | --- | --- | --- | --- | --- |
| CC[C@H](C)[C@@H]1NC(=O)[C@H](CC(=O)O)NC(=O)[C@H](CC(=O)O)NC(=O)CNC(=O)[C@@H]2CCCN2C(=O)[C@H](CC(=O)O)NC(=O)[C@H](Cc2ccc(O)cc2)NC(=O)[C@H]([C@@H](C)CC)NC(=O)[C@H](CCC(=O)O)NC(=O)[C@H](CCCCN)NC1=O |  |  |  | > 80% |  |
| CC[C@H](C)[C@@H]1NC(=O)[C@H](CC(=O)O)NC(=O)[C@H](CC(=O)O)NC(=O)CNC(=O)[C@@H]2CCCN2C(=O)[C@H](CC(=O)O)NC(=O)[C@H](Cc2ccc(O)cc2)NC(=O)[C@H]([C@@H](C)CC)NC(=O)[C@@H](N)CCC(=O)NCCCC[C@@H](C(=O)O)NC1=O (H-EIYDPGDDIK-OH; lactam 1-10) | 80% | Dose-dependent effect |  | > 80% | 50% |
| CC[C@H](C)[C@@H]1NC(=O)[C@H](CC(=O)O)NC(=O)[C@H](CC(=O)O)NC(=O)CNC(=O)[C@@H]2CCCN2C(=O)[C@H](CC(=O)O)NC(=O)[C@H](Cc2ccc(O)cc2)NC(=O)[C@H]([C@@H](C)CC)NC(=O)[C@H](CO)NC(=O)[C@@H](N)CCC(=O)NCCCC[C@@H](C(=O)O)NC1=O (H-ESIYDPGDDIK-OH; lactam 1-11) | 80% | Dose-dependent effect | 45% | > 80% | 60% |

The next lines start with results.

| inhibition [2] | Activity [3] | inhibition [4] | SMILES | viability at 2 h, 180 µM [1] | inhibition (Jurkat) |
| --- | --- | --- | --- | --- | --- |
| 30% |  |  | CC[C@H](C)[C@@H]1NC(=O)[C@H](CO)NC(=O)[C@@H](N)C(C)(C)SSC[C@@H](C(=O)O)NC(=O)[C@@H](CCCCN)NC(=O)[C@H]([C@@H](C)CC)NC(=O)[C@H](CC(=O)O)NC(=O)[C@H](CC(=O)O)NC(=O)CNC(=O)[C@@H]2CCCN2C(=O)[C@H](CC(=O)O)NC(=O)[C@H](Cc2ccc(O)cc2)NC1=O | > 80% | 20% |
| 80% | Dose-dependent effect |  | CC[C@H](C)[C@@H]1NC(=O)[C@H](CC(=O)O)NC(=O)[C@@H](CC(=O)O)NC(=O)CNC(=O)[C@@H]2CCCN2C(=O)[C@H](CC(=O)O)NC(=O)[C@H](Cc2ccc(O)cc2)NC(=O)[C@H]([C@@H](C)CC)NC(=O)[C@H](CCC(=O)O)NC(=O)[C@H](CCCCN)NC1=O |  | 60% |
